Source: patent US8163909B2, “Substituted hydroxyethyl amine compounds as beta-secretase modulators and methods of use” (Amgen Inc., priority 2007, dated 2012)
Like-named read-outs stand apart in the source and are kept apart here. Values belong to the compound of their own block, whether it stands above or below them.

How the values were obtained:
[1] = molecular target: Beta Secretase enzyme (BACE) (Homo sapiens, UniProt P56817); assay: In vitro enzymatic BACE FRET (fluorescence resonance energy transfer) assay; type: biochemical;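 further: fluorescence read after 1 h with 50 nM quenched peptide substrate spanning the BACE cleavage site, in pH 4.2 acetate buffer containing 10% DMSO and nonionic detergent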
Beta Secretase enzyme (BACE), sequence (P56817 46-501): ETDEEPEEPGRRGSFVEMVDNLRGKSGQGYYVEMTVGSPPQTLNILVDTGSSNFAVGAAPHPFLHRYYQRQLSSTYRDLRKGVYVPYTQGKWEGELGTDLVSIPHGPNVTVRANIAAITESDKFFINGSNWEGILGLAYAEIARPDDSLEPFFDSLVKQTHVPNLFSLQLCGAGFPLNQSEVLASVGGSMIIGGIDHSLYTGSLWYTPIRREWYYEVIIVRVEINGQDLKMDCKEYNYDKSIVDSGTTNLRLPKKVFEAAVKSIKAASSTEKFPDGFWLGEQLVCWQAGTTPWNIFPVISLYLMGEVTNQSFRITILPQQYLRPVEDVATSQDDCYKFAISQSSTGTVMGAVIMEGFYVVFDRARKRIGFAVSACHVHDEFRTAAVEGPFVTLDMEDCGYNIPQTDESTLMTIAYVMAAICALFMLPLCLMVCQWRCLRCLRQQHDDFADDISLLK

[2] = tested on: Aβ40 in conditioned medium of cells stably expressing Amyloid Precursor Protein (APP); assay: In vitro BACE cell-based assay (Aβ40 in conditioned medium, sandwich ELISA);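 further: compounds added as a dilution series, secreted peptide quantified by europium time-resolved fluorescence readout, potency fitted from percent of control versus compound concentration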
[3] = BACE enzyme assay, read-out: BACE1 FRET assay (IC50)
[4] = Homo sapiens, HEK293, HEK cells, cell-based assay, read-out: HEK cell assay (IC50)
[5] = Table 1, read-out: BACE1 FRET assay
[6] = Homo sapiens, HEK293, Table 1, HEK cells, read-out: HEK cell assay
[7] = BACE enzyme assay, IC50's in uM, read-out: BACE1 FRET assay
[8] = Homo sapiens, HEK293, cell-based assay, HEK cells, IC50's in uM, read-out: HEK cell assay
[9] = BACE enzyme FRET assay, read-out: BACE1 FRET assay (IC50)
[10] = Homo sapiens, HEK293, HEK cell-based assay, IC50's in uM, read-out: HEK cell assay

Structure (SMILES): CC(C)(C)Cc1cnc2c(c1)[C@@H](NC[C@@H](O)[C@H](Cc1cc(F)cc(F)c1)NC(=O)COCc1cncs1)CC1(CCC1)O2 [compound 94]
- IC50 [1, 3]: 0.003 µM
- IC50 [2, 4]: 0.0171 µM

Structure (SMILES): COCC(=O)N[C@@H](Cc1ccccc1)[C@H](O)CN[C@H]1CC2(CCC2)Oc2ncc(CC(C)C)cc21 [compound 328]
- IC50 [1, 5]: 0.00919 µM
- IC50 [2, 6]: 0.023 µM

Structure (SMILES): CO[C@H](C)C(=O)N[C@@H](Cc1cccc(C#N)c1)[C@H](O)CN[C@H]1CC2(CCC2)Oc2ncc(CC(F)(F)F)cc21 [compound 345]
- IC50 [1, 5]: 0.0266 µM
- IC50 [2, 6]: 0.0609 µM

Structure (SMILES): COC(OC)C(=O)N[C@@H](Cc1cccc(C(N)=O)c1)[C@H](O)CN[C@H]1CC2(CCC2)Oc2ncc(CC(C)(C)F)cc21 [compound 864]
- IC50 [1, 7]: 0.04 µM
- IC50 [2, 8]: 0.117 µM

Structure (SMILES): COCC(=O)N[C@@H](Cc1ccc2c(c1)OCO2)[C@H](O)CN[C@H]1CC2(CCC2)Oc2ncc(CCC(F)(F)F)cc21 [compound 195]
- IC50 [1, 9]: 0.754 µM
- IC50 [2, 4]: 0.621 µM

Structure (SMILES): CO[C@H](C)C(=O)N[C@@H](Cc1cccc(C#N)c1)[C@H](O)CN[C@H]1CC2(CCC2)Oc2ncc(CC(C)(C)C)cc21 [compound 56]
- IC50 [1, 3]: 0.00263 µM
- IC50 [2, 4]: 0.00305 µM

Structure (SMILES): COCC(=O)N[C@@H](Cc1ccc(F)cc1)[C@H](O)CN[C@H]1C[C@]2(C[C@@H](C#N)C2)Oc2ncc(CC(C)(C)C)cc21 [compound 261, N-((1S,2R)-3-(((1r,3S,4′S)-3-cyano-6′-(2,2-dimethylpropyl)-3′,4′-dihydrospiro[cyclobutane-1,2′-pyrano[2,3-b]pyridin]-4′-yl)amino)-1-((4-fluorophenyl)methyl)-2-hydroxypropyl)-2-(methyloxy)acetamide]
- IC50 [1, 9]: 0.0389 µM

Structure (SMILES): COC(C)C(=O)NC(Cc1ccc2c(c1)OCO2)C(O)CNC1CC2(CC(C)C2)Oc2ncc(CC(C)C)cc21 [compound 134, (2R)—N-((1S,2R)-1-(1,3-benzodioxol-5-ylmethyl)-2-hydroxy-3-(((1s,3R,4′S)-3-methyl-6′-(2-methylpropyl)-3′,4′-dihydrospiro[cyclobutane-1,2′-pyrano[2,3-b]pyridin]-4′-yl)amino)propyl)-2-(methyloxy)propanamide]
- IC50 [1, 3]: 0.0272 µM
- IC50 [2, 4]: 0.192 µM

Structure (SMILES): CC(=O)N[C@@H](Cc1ccc(F)cc1)[C@H](O)CN[C@@H]1c2cc(CC(C)(C)C)cnc2OC2(CCC2)[C@H]1F [compound 357]
- IC50 [1, 5]: 13.3 µM
- IC50 [2, 6]: > 10 µM

Structure (SMILES): CO[C@H](C)C(=O)N[C@@H](Cc1ccc(F)cc1)[C@H](O)CN[C@H]1CC2(CCC2)Oc2cnc(CC(C)(C)F)cc21 [compound 256]
- IC50 [1, 9]: 0.226 µM
- IC50 [2, 4]: 0.274 µM

Structure (SMILES): CC(=O)N[C@@H](Cc1ccc(F)cc1)[C@H](O)CNC1c2cc(CC(C)(C)C)cnc2OC2(CCC2)C1F (some centres unmarked) [compound 355]
- IC50 [1, 5]: 0.117 µM
- IC50 [2, 6]: 0.113 µM

Structure (SMILES): COC(C)C(=O)NC(Cc1ccc2c(c1)OCO2)C(O)CNC1CC2(CC(O)C2)Oc2cnccc21 [compound 245, (2R)—N-((1S,2R)-1-(1,3-benzodioxol-5-ylmethyl)-2-hydroxy-3-(((1r,3R,4′S)-3-hydroxy-3′,4′-dihydrospiro[cyclobutane-1,2′-pyrano[2,3-c]pyridin]-4′-yl)amino)propyl)-2-(methyloxy)propanamide]
- IC50 [1, 9]: 40 µM

Structure (SMILES): CO[C@H](C(=O)N[C@@H](Cc1ccc(F)cc1)[C@H](O)CN[C@H]1CC2(CCC2)Oc2ncc(CC(C)(C)C)cc21)C(F)(F)F [compound 64]
- IC50 [1, 3]: 0.617 µM
- IC50 [2, 4]: 0.0797 µM

Structure (SMILES): COC(=O)C1CC2(C1)CC(NCC(O)C(Cc1ccc(F)cc1)NC(C)=O)c1cc(CC(C)(C)C)cnc1O2 [compound 257, methyl (1s,3R,4′S)-4′-(((2R,3S)-3-(acetylamino)-4-(4-fluorophenyl)-2-hydroxybutyl)amino)-6′-(2,2-dimethylpropyl)-3′,4′-dihydrospiro[cyclobutane-1,2′-pyrano[2,3-b]pyridine]-3-carboxylate]
- IC50 [1, 9]: 0.271 µM
- IC50 ([2]; HEK cells, cell-based assay, read-out: HEK cell assay (IC50)): 0.372 µM

Structure (SMILES): COCC(=O)N[C@@H](Cc1ccc(F)cc1)[C@H](O)CN[C@H]1CC2(CCC2)Oc2ncc(CC(C)C)cc21 [compound 332]
- IC50 [1, 5]: 0.0109 µM
- IC50 [2, 6]: 0.0189 µM

Structure (SMILES): CCO[C@H](C)C(=O)N[C@@H](Cc1cccc(-c2nccs2)c1)[C@H](O)CN[C@H]1CC2(CCC2)Oc2ncc(CC(C)(C)C)cc21 [Example 894]
- IC50 [2, 8]: 0.018 µM

Structure (SMILES): CC(=O)NC(Cc1ccc(F)cc1)C(O)CNC1CC2(CC(C#N)C2)Oc2ncc(CC(C)(C)C)cc21 [compound 262, N-((1S,2R)-3-(((1r,3S,4′S)-3-cyano-6′-(2,2-dimethylpropyl)-3′,4′-dihydrospiro[cyclobutane-1,2′-pyrano[2,3-b]pyridin]-4′-yl)amino)-1-((4-fluorophenyl)methyl)-2-hydroxypropyl)acetamide]
- IC50 [1, 9]: 0.0465 µM

Structure (SMILES): CC(=O)N[C@@H](Cc1cccc(F)c1)[C@H](O)CN[C@H]1CC2(CCC2)Oc2ncc([C@@H](F)[C@H](C)C(F)(F)F)cc21 [compound 323]
- IC50 [1, 5]: 0.365 µM

Structure (SMILES): CCO[C@@H](C)C(=O)N[C@@H](Cc1cccc(-c2nccs2)c1)[C@H](O)CN[C@H]1CC2(CCC2)Oc2ncc(CC(C)(C)C)cc21 [Example 893]
- IC50 [2, 8]: 0.012 µM

The remaining lines, values ahead:

- IC50 [1, 3]: 0.0255 µM
- IC50 [2, 4]: 0.0678 µM
Structure (SMILES): COCC(=O)N[C@@H](Cc1ccc2c(c1)OCO2)[C@H](O)CN[C@H]1CC2(CCC2)Oc2c1cc(CC(C)(C)C)nc2Cl [compound 127, N-((1S,2R)-1-(1,3-benzodioxol-5-ylmethyl)-3-(((4′S)-8′-chloro-6′-(2,2-dimethylpropyl)-3′,4′-dihydrospiro[cyclobutane-1,2′-pyrano[2,3-c]pyridin]-4′-yl)amino)-2-hydroxypropyl)-2-(methyloxy)acetamide]

- IC50 [1, 3]: 0.00884 µM
- IC50 [2, 4]: 0.0391 µM
Structure (SMILES): COCC(=O)N[C@@H](Cc1ccc(F)cc1)[C@H](O)CN[C@H]1CC2(CCC2)Oc2ncc(CC(C)(C)C(F)F)cc21 [compound 160]

- IC50 [1, 5]: 0.00275 µM
- IC50 [2, 6]: 0.0123 µM
Structure (SMILES): COCC(=O)N[C@@H](Cc1ccc(F)c(Cl)c1)[C@H](O)CN[C@H]1CC2(CCC2)Oc2ncc(CC(C)(C)C)cc21 [compound 351]

- IC50 [1, 9]: 0.00628 µM
- IC50 [2, 4]: 0.0336 µM
Structure (SMILES): COC(C)C(=O)NC(Cc1ccc2c(c1)OCO2)C(O)CNC1CC2(CC(F)C2)Oc2ncc(CC(C)(C)C)cc21 [compound 241, (2R)—N-((1S,2R)-1-(1,3-benzodioxol-5-ylmethyl)-3-(((1s,3S,4′S)-6′-(2,2-dimethylpropyl)-3-fluoro-3′,4′-dihydrospiro[cyclobutane-1,2′-pyrano[2,3-b]pyridin]-4′-yl)amino)-2-hydroxypropyl)-2-(methyloxy)propanamide]

- IC50 [1, 3]: 0.0541 µM
- IC50 [2, 4]: 0.055 µM
Structure (SMILES): COCC(=O)N[C@@H](Cc1ccc2c(c1)OCO2)[C@H](O)CN[C@H]1CC2(CCC2)Oc2c1cc(CC(C)(C)C)nc2N1CCCC1 [compound 130]

- IC50 ([1]; Table 2, read-out: BACE1 FRET assay): 0.029 µM
- IC50 ([2]; Homo sapiens, HEK293, Table 2, HEK cells, read-out: HEK cell assay): 0.056 µM
Structure (SMILES): C[C@@H](F)C(=O)N[C@@H](Cc1ccc2c(c1)OCO2)[C@H](O)CN[C@H]1CC2(CCC2)Oc2ncc(CC(C)(C)C)cc21 [Example 484, (2R)-N-((1S,2R)-1-(1,3-benzodioxol-5-ylmethyl)-3-(((4′S)-6′-(2,2-dimethylpropyl)-3′,4′-dihydrospiro[cyclobutane-1,2′-pyrano[2,3-b]pyridin]-4′-yl)amino)-2-hydroxypropyl)-2-fluoropropanamide]

- IC50 [1, 9]: 0.448 µM
- IC50 [2, 4]: 0.157 µM
Structure (SMILES): CCNc1cc(Br)cc2c1OC1(CCC1)C[C@@H]2NC[C@@H](O)[C@H](Cc1cccc(F)c1)NC(=O)COC [compound 270]

- IC50 ([1]; BACE enzyme assay, read-out: BACE1 FRET assay): 0.015 µM
- IC50 ([2]; Homo sapiens, HEK293, HEK cells, read-out: HEK cell assay): 0.01 µM
Structure (SMILES): COCC(=O)N[C@@H](Cc1cccc(F)c1)[C@H](O)CN[C@H]1CC2(CCC2)Oc2c(-c3ccncc3)cc(CC(C)(C)F)cc21 [compound 530]

- IC50 [1, 5]: 0.135 µM
- IC50 [2, 6]: 0.404 µM
Structure (SMILES): CO[C@H](C)C(=O)N[C@@H](Cc1ccc2c(c1)OCO2)[C@H](O)CN[C@H]1CC2(CCC2)Oc2nc(F)c(CC(C)C)cc21 [compound 336]

- IC50 [1, 9]: 0.0325 µM
- IC50 [2, 4]: 0.159 µM
Structure (SMILES): CC(=O)N[C@@H](Cc1ccc2c(c1)OC(F)(F)O2)[C@H](O)CN[C@H]1CC2(CCC2)Oc2ncc(CC(C)(C)C)cc21 [compound 292]

- IC50 [1, 7]: 0.019 µM
- IC50 [2, 10]: 0.054 µM
Structure (SMILES): COCC(=O)N[C@@H](Cc1cccc(-c2nccs2)c1)[C@H](O)CN[C@H]1CC2(CCC2)Oc2cnc(CC(C)(C)C)cc21 [compound 807]

- IC50 [1, 9]: 0.0612 µM
- IC50 [2, 4]: 1.66 µM
Structure (SMILES): COCC(=O)N[C@@H](Cc1ccc(F)cc1)[C@H](O)CN[C@H]1CC2(CCC2)Oc2ncc([C@H](O)C(C)(C)C)cc21 [compound 188]

- IC50 [2, 8]: 0.099 µM
Structure (SMILES): C#Cc1ccc(C[C@H](NC(=O)COC)[C@H](O)CN[C@H]2CC3(CCC3)Oc3ncc(CC(C)(C)C)cc32)cc1 [Example 885]

- IC50 [2, 10]: 0.018 µM
Structure (SMILES): COCC(=O)N[C@@H](Cc1cccc(-c2ccccn2)c1)[C@H](O)CN[C@H]1CC2(CCC2)Oc2ncc(CC(C)(C)C)cc21 [compound 841, N-((1S,2R)-3-(((4′S)-6′-(2,2-dimethylpropyl)-3′,4′-dihydrospiro[cyclobutane-1,2′-pyrano[2,3-b]pyridin]-4′-yl)amino)-2-hydroxy-1-(3-(2-pyridinyl)benzyl)propyl)-2-methoxyacetamide]

- IC50 [2, 10]: 0.014 µM
Structure (SMILES): COCC(=O)N[C@@H](Cc1cccc(-c2nc(C)cs2)c1)[C@H](O)CN[C@H]1CC2(CCC2)Oc2ncc(CC(C)(C)C)cc21 [compound 758]

- IC50 [1, 7]: 0.014 µM
Structure (SMILES): COCC(=O)N[C@@H](Cc1cc(Br)cc(OC)c1)[C@H](O)CN[C@H]1CC2(CCC2)Oc2ncc(CC(C)(C)C)cc21 [compound 917]

- IC50 [2, 8]: 0.1 µM
Structure (SMILES): COCC(=O)N[C@@H](Cc1cccc(-c2nccs2)c1F)[C@H](O)CN[C@H]1CC2(CCC2)Oc2ncc(CC(C)(C)C)cc21 [compound 908]

- IC50 [2, 8]: 0.144 µM
Structure (SMILES): C#Cc1cccc(C[C@H](NC(=O)COC)[C@H](O)CN[C@H]2CC3(CCC3)Oc3ncc(CC(C)(C)C)cc32)c1F [compound 911]
